Assay results: patent US20230047825A1, “ANTIMICROBIAL PEPTIDES” (priority 2019, published 2023)
Several values for one entry are separate records, joined by “and”; a condition that tells them apart may be missing. Equal entries are not always repeated. Marks after values point to notes of the source that are not given here. Where a SMILES comes first, the peptide text is derived from it.

Columns and labels:
[1] = Maximum Tolerated Dose (MTD) assessment, IV TID q8h: mortality, body weight, clinical observations; type: in vivo, mouse; conditions: 5 mg/kg (IV, TID, q8h)
[2] = as above; type: in vivo, mouse; design: key to Irritability / Hyperactivity / Inc. Startle / Inc. Touch / Dec. Startle Response / Dec. Touch Response / Inc. Exploration / Dec. Exploration / Pinna / Placing / Tremor / Dec. Spont. Activity / Straub Tail / Reactivity / Righting / Ataxia / Convulsion C.T.C-T / Low Limb Post / Abdominal Tone / Limb Tone / Grip Strength / Salivation F.V. / Lacrimation / Diarrhea / Body Temperature / Piloerection / Inc. Palpebral Size / Dec. Palpebral Size / Others / Death: “−” no effects; “±”: Slight to moderate effects; +: Severe effects; “C.”: Cyanosis; “D.”: Depth; E: Edema; conditions: for Body Weight, individual animals No. 1-4 / Mortality (total number of deaths/total number of animals): IV
Procedure: Tolerability analysis was conducted to determine the upper limit of D-PLEUROCIDIN-KR dosage. Test article solutions were intravenously (IV) administered to immunocompetent ICR mice with the dose schedule and concentrations indicated in the study design in the table below.
The animals were not infected. Doses were IV administered thrice (TID) with 8 h intervals (q8h) between doses. Animals were humanely euthanized after 3 days of the last treatment or at humane endpoints.
The MTD assessment was performed with immunocompetent female ICR mice, weighing 22 f 2 g. All animals were specific pathogen free.
Test articles were administered to animals by IV injections following the dose schedule, volumes, and concentrations indicated the Table above for MTD study. […] Animals were humanely euthanized if severe acute toxicity was observed during the experimental period.
The adverse effects were monitored at 5 minutes via cage-side observation after each subsequent IV administration on Day 1. Animals were observed again for mortality at 72 h after the last treatment. Body weights were recorded before each treatment and at 72 h after the last treatment. If overt toxicity was observed after the 1st or 2nd dose of a group, the 2nd or 3rd dose of that group was not administered.
Any adverse events observed were summarized. List of scores from observation assessments were also recorded.

[3] = 5 mg/kg, TID q8h, 24 h of 3rd dosing
[4] = 5 mg/kg, TID q8h, 48 h of 3rd dosing
[5] = 5 mg/kg, TID q8h, 72 h of 3rd dosing
[6] = 10 mg/kg, 24 h of 3rd dosing (2nd and 3rd doses not administered)
[7] = 10 mg/kg, 48 h of 3rd dosing (2nd and 3rd doses not administered)
[8] = 10 mg/kg, 72 h of 3rd dosing (2nd and 3rd doses not administered)
[9] = AUTONOMIC, 5 mg/kg IV, 5 minutes after 1st dosing, ICR mice, animals No. 1-4
[10] = AUTONOMIC, 10 mg/kg IV, 5 minutes after 1st dosing, ICR mice, animals No. 1-4

CC(C)C[C@@H](NC(=O)[C@@H](Cc1ccc(O)cc1)NC(=O)[C@@H](Cc1c[nH]cn1)NC(=O)[C@H](NC(=O)[C@@H](CC(C)C)NC(=O)[C@@H](C)NC(=O)[C@@H](C)NC(=O)[C@@H](CCCNC(=N)N)NC(=O)CNC(=O)[C@H](NC(=O)[C@@H](Cc1c[nH]cn1)NC(=O)[C@@H](CCCNC(=N)N)NC(=O)CNC(=O)[C@H](NC(=O)[C@@H](Cc1c[nH]cn1)NC(=O)[C@@H](C)NC(=O)[C@@H](C)NC(=O)[C@@H](CCCNC(=N)N)NC(=O)[C@@H](CCCNC(=N)N)NC(=O)[C@@H](Cc1ccccc1)NC(=O)[C@@H](Cc1ccccc1)NC(=O)[C@@H](CO)NC(=O)CNC(=O)[C@@H](Cc1c[nH]c2ccccc12)NC(=O)CN)C(C)C)C(C)C)[C@H](C)O)C(N)=O [D-pleurocidin-KR] (HELM PEPTIDE1{G.[dW].G.[dS].[dF].[dF].[dR].[dR].[dA].[dA].[dH].[dV].G.[dR].[dH].[dV].G.[dR].[dA].[dA].[dL].[dT].[dH].[dY].[dL].[am]}$$$$V2.0; N-terminus assumed)
tolerability [1]: tolerated
adverse effects after the first dose administration ([2]; 5 mg/kg): severe cyanosis, labored respiration and edema
Body Weight, individual animals No. 1-4 ([2]; 5 mg/kg, TID q8h, 1st dosing (recorded before treatment)): 25 g (3×) and 23 g
Body Weight, individual animals No. 1-4 ([2]; 5 mg/kg, TID q8h, 2nd dosing): 25 g (3×) and 23 g
Body Weight, individual animals No. 1-4 ([2]; 5 mg/kg, TID q8h, 3rd dosing): 25 g and 24 g (2×) and 23 g
Body Weight, individual animals No. 1-4 [2, 3]: 26 g and 25 g (2×) and 23 g
Mortality (total number of deaths/total number of animals) [2, 3]: 0/4
Body Weight, individual animals No. 1-4 [2, 4]: 25 g (3×) and 23 g
Mortality (total number of deaths/total number of animals) [2, 4]: 0/4
Body Weight, individual animals No. 1-4 [2, 5]: 26 g (3×) and 24 g
Mortality (total number of deaths/total number of animals) [2, 5]: 0/4
Mortality (total number of deaths/total number of animals) ([2]; 5 mg/kg, TID, q8h, 5 min of 1st dosing): 0/4
Mortality (total number of deaths/total number of animals) ([2]; 5 mg/kg, TID, q8h, 5 min of 2nd dosing): 0/4
Mortality (total number of deaths/total number of animals) ([2]; 5 mg/kg, TID, q8h, 5 min of 3rd dosing): 0/4
Mortality (total number of deaths/total number of animals) ([2]; 5 mg/kg, TID, q8h, 1 h of 1st dosing): 0/4
Mortality (total number of deaths/total number of animals) ([2]; 5 mg/kg, TID, q8h, 1 h of 2nd dosing): 0/4
Mortality (total number of deaths/total number of animals) ([2]; 5 mg/kg, TID, q8h, 1 h of 3rd dosing): 0/4
mortality after the 1st dosing ([2]; 10 mg/kg): one of the four animals was found dead
Body Weight, individual animals No. 1-4 ([2]; 10 mg/kg, 1st dosing (recorded before treatment)): 22 g (2×) and 23 g (2×)
Body Weight, individual animals No. 1-4 ([2]; 10 mg/kg, 2nd dosing (2nd and 3rd doses not administered)): 21 g (2×) and dead and 23 g
Body Weight, individual animals No. 1-4 ([2]; 10 mg/kg, 3rd dosing (2nd and 3rd doses not administered)): 21* g (2×) and 23* g
Mortality (total number of deaths/total number of animals) ([2]; 10 mg/kg, 5 min of 1st dosing): 0/4
Mortality (total number of deaths/total number of animals) ([2]; 10 mg/kg, 5 min of 2nd dosing (2nd and 3rd doses not administered)): 1/4
Mortality (total number of deaths/total number of animals) ([2]; 10 mg/kg, 5 min of 3rd dosing (2nd and 3rd doses not administered)): 1/4
Mortality (total number of deaths/total number of animals) ([2]; 10 mg/kg, 1 h of 1st dosing): 1/4
Mortality (total number of deaths/total number of animals) ([2]; 10 mg/kg, 1 h of 2nd dosing (2nd and 3rd doses not administered)): 1/4
Mortality (total number of deaths/total number of animals) ([2]; 10 mg/kg, 1 h of 3rd dosing (2nd and 3rd doses not administered)): 1/4
Body Weight, individual animals No. 1-4 [2, 6]: 21* g (2×) and 24* g
Mortality (total number of deaths/total number of animals) [2, 6]: 1/4
Body Weight, individual animals No. 1-4 [2, 7]: 21* g (2×) and 24* g
Mortality (total number of deaths/total number of animals) [2, 7]: 1/4
Body Weight, individual animals No. 1-4 [2, 8]: 22* g (2×) and 23* g
Mortality (total number of deaths/total number of animals) [2, 8]: 1/4
tolerability i.v. in ICR mice ([2]; 15 mg/kg/24h i.v. (data not shown)): tolerated
Body Weight, individual animals No. 1-4 ([2]; 30 mg/kg, 1st dosing (recorded before treatment)): 21 g and 22 g and 23 g and 24 g
Body Weight, individual animals No. 1-4 ([2]; 30 mg/kg, 2nd dosing): dead
Mortality (total number of deaths/total number of animals) ([2]; 30 mg/kg, 5 min of 1st dosing): All animals were found dead and 4/4
Mortality (total number of deaths/total number of animals) ([2]; 30 mg/kg, 1 h of 1st dosing): All dead
Mortality (total number of deaths/total number of animals) ([2]; 30 mg/kg, 1 h of 3rd dosing): All dead
tolerability ([2]; 10 and 30 mg/kg dosages): not tolerated
Body Temperature [2, 9]: −
Death [2, 9]: −
Dec. Palpebral Size [2, 9]: −
Diarrhea [2, 9]: −
Inc. Palpebral Size [2, 9]: −
Lacrimation [2, 9]: −
Others [2, 9]: E
Piloerection [2, 9]: −
Respiration [2, 9]: D±
Salivation F.V. [2, 9]: −
Skin Color [2, 9]: C±
Body Temperature [2, 10]: −
Death [2, 10]: −
